Legend:
Leptosphaeria nodorum = assay: Activity against wheat leafspot (LN); type: in vivo; details: direct therapeutic foliar spray, 600 ppm, 6-8 days
Description: (d) Activity against wheat leafspot (Leptosphaeria nodorum; LN.) The test is a direct therapeutic foliar spray. Leaves of wheat plants (cv Norman), at the single leaf stage, are inoculated by spraying with an aqueous suspension containing 1.5×10^6 conidia/ml. The inoculated plants are kept for 24 hours in a high humidity compartment prior to treatment. The plants are sprayed with a solution of the test compound at a dosage of 600 ppm using an automated sprayline as described under (a). After drying, the plants are kept for 6-8 days at 22° C. and moderate humidity (70%). Assessment is based on the density of lesions per leaf compared with that on leaves of control plants. The extent of disease control in all the above tests is expressed as a rating compared with either an untreated control or a diluent-sprayed-control, according to the criteria: […]

Phytophthora infestans = type: in vivo; details: tomato, direct protectant foliar spray
[1] = tested on: Pseudocercosporella herpotrichoides; assay: Activity against wheat eyespot in-vitro (PHI); type: cell-based; details: 10 ppm, 10 days, 20° C., mycelial growth
Description: (h) Activity against wheat eyespot in-vitro (Pseudocercosporella herpotrichoides; pHI) This test measures the in vitro activity of compounds against the fungus causing wheat eyespot. The test compound is dissolved or suspended in acetone and is added into 4 ml aliquots of half strength Potato Dextrose Broth (PDB) dispended in 25-compartment petri dishes to give a final concentration of 10ppm. The fungal inoculum consists of mycelial fragments of P. herpotrichoides grown in half strength PDB in shaken flasks and added to the broth to provide 5×10^4 fragments/ml broth. Petri dishes are incubated at 20° C. for 10 days until the assessment of mycelial growth. The extent of disease control in all the above tests is expressed as a rating compared with either an untreated control or a diluent-sprayed-control, according to the criteria: […]

Venturia inaequalis = assay: Activity against apple scab in-vitro (VII); type: cell-based; details: 10 ppm, 10 days, 20° C., mycelial growth
Description: (j) Activity against apple scab in-vitro (Venturia inaequalis: VII) This test measures the in-vitro activity of compounds against V. inaequalis that causes apple scab. The test compound in acetone is added into 4 ml aliquots of half strength Potato Dextrose Broth dispensed in 25-compartment petri dishes to give final concentrations of 10 ppm. The fungal inoculum consists of mycelial fragments and spores of V. inaequalis grown on malt agar and added to the broth to provide 5×10^4 propagules/ml broth. Petri dishes are incubated at 20° C. for 10 days until the assessment of mycelial growth. The extent of disease control in all the above tests is expressed as a rating compared with either an untreated control or a diluent-sprayed-control, according to the criteria: […]

Alternaria solani = assay: Activity against tomato early blight (AS); type: in vivo; details: Table VI; tomato seedlings, contact prophylactic foliar spray, 4 days
Description: b) Activity against tomato early blight (Alternaria solani; AS) This test measures the contact prophylactic activity of test compounds applied as a foliar spray. Tomato seedlings (cv Outdoor Girl) are grown to the stage at which the second true leaf is expanded. The plants are treated using an automated sprayline as described under (a). Test compounds are applied as solutions or suspensions in a mixture of acetone and water (50:50 v/v) containing 0.04% surfactant ("TWEEN 20"--Trade Mark). After drying the plants are kept for 24 hours in a glasshouse at 20° C. and 40% R.H., followed by inoculation of the leaf upper surfaces with a suspension of A. solani conidia containing 10^4 spores/ml. For 4 days after inoculation plants are kept moist in a humidity compartment at 21° C. Disease is assessed 4 days after inoculation, based on the percentage of leaf surface area covered by lesions when compared with control plants. The extent of disease control in all the above tests is expressed as a rating compared with either an untreated control or a diluent-sprayed-control, according to the criteria: […]

[2] = tested on: Erysiphe graminis f.sp. hordei; assay: Activity against barley powdery mildew, direct therapeutic (EGT); type: in vivo; details: direct therapeutic foliar spray, 600 ppm, up to 7 days
Description: (e) Activity against barley powdery mildew (Erysiphe graminis f.sp. hordei; EGT) The test is a direct therapeutic foliar spray. Leaves of barley seedlings, (cv. Golden Promise) at the single leaf stage are inoculated by dusting with mildew conidia one day prior to treatment with the test compound. The inoculated plants are kept overnight at glasshouse ambient temperature (18° C.) and humidity (40%) prior to treatment. The plants are sprayed with the test compound at a dosage of 600 ppm using an automated sprayline as described under (a). After drying, plants are returned to a compartment at 18° C. and 40% humidity for up to 7 days. Assessment is based on the percentage of leaf area covered by sporulation compared with that on leaves of control plants. The extent of disease control in all the above tests is expressed as a rating compared with either an untreated control or a diluent-sprayed-control, according to the criteria: […]

Rhizoctonia solani = assay: Activity against Rhizoctonia in-vitro (RSI); type: cell-based; details: 10 ppm, 10 days, 20° C., mycelial growth
Description: (i) Activity against Rhizoctonia in-vitro (Rhizoctonia solani: RSI) This test measures the in-vitro activity of compounds against R. solani that causes stem and root rots. The test compound in acetone is added into 4 ml aliquots of half strength Potato Dextrose Broth dispensed in 25-compartment petri dishes to give final concentrations of 10 ppm. The fungal inoculum consists of mycelial fragments of R. solani growth in half strength PDB in shaken culture flasks and added to the broth to provide 5×10^4 fragments/ml broth. Petri dishes are incubated at 20° C. for 10 days until the assessment of mycelial growth. The extent of disease control in all the above tests is expressed as a rating compared with either an untreated control or a diluent-sprayed-control, according to the criteria: […]

[3] = tested on: Erysiphe graminis f.sp. hordei; assay: Direct protectant activity against barley powdery mildew (EGP); type: in vivo; details: direct protectant foliar spray, 8 days
Description: (f) Direct protectant activity against barley powdery mildew (Erysiphe graminis f.sp. hordei; EGP) The test is a direct protectant foliar spray. Leaves of barley seedlings (cv Golden Promise) at the single leaf stage are sprayed with the test compound as described under (a). After drying, the plants are kept for 24 hours in a glasshouse at 18° C. and 40% R.H. Then the plants are inoculated by dusting with mildew conidia and kept at 18° C. and 40% R.H. for 8 days. Assessment is based on the percentage of leaf area covered by sporulation compared with that on leaves of control plants. The extent of disease control in all the above tests is expressed as a rating compared with either an untreated control or a diluent-sprayed-control, according to the criteria: […]

Pyricularia oryzae = type: in vivo; details: rice seedlings, direct therapeutic foliar spray, 600 ppm, 4-5 days
Plasmopara viticola = assay: Antisporulant activity against vine downy mildew (PVA); type: in vivo; details: vine leaves, antisporulant foliar spray, 600 ppm, 750 l/ha
Description: (a) Antisporulant activity against vine downy mildew (Plasmopara viticola; PVA) The test is a direct antisporulant one using a foliar spray. The lower surfaces of leaves of whole vine plants (cv Cabernet Sauvignon), approximately 8 cm high, are inoculated by spraying with an aqueous suspension containing 5×10^4 zoosporangia/ml. The inoculated plants are kept for 24 hours at 21° C. in a high humidity compartment, then 24 hours at glasshouse ambient temperature and humidity. Infected leaves are sprayed on their lower surfaces with a solution of active material in 1:1 water/acetone containing 0.04% "TWEEN 20" (Trade Mark; a polyoxyethylene sorbitan ester surfactant). Plants are treated using an automated sprayline with an atomising nozzle. The concentration of the compound is 600 ppm, and the spray volume is 750 l/ha. After spraying, the plants are returned to normal glasshouse conditions for 96 hours and are then transferred to the high humidity compartment for 24 hours to induce sporulation. Assessment is based on the percentage of the leaf area covered by sporulation compared with that on control leaves. The extent of disease control in all the above tests is expressed as a rating compared with either an untreated control or a diluent-sprayed-control, according to the criteria: […]

Botrytis cinerea = assay: Direct protectant activity against broad bean grey mould (BCB); type: in vivo; details: direct protectant foliar spray, 600 ppm, 4 days
Description: (c) Direct protectant activity against broad bean grey mould (Botrytis cinerea; BCB) The test is a direct protectant foliar spray. The upper surfaces of leaves of broad bean plants with two leaf pairs (cv The Sutton) are sprayed with the test compound at a dosage of 600 ppm using an automated sprayline as described under (a). 24 hours after spraying the leaves are inoculated with an aqueous suspension containing 10^6 conidia/ml. For 4 days after inoculation plants are kept in a high humidity compartment at 22° C. Disease is assessed 4 days after inoculation, based on the percentage of leaf surface area covered by lesions. The extent of disease control in all the above tests is expressed as a rating compared with either an untreated control or a diluent-sprayed-control, according to the criteria: […]

Row | SMILES | disease control rating LN (Leptosphaeria nodorum) | disease control rating PIP (Phytophthora infestans) | disease control rating PHI [1] | disease control rating VII (Venturia inaequalis) | disease control rating AS (Alternaria solani) | disease control rating EGT [2] | disease control rating RSI (Rhizoctonia solani) | disease control rating EGP [3] | disease control rating PO (Pyricularia oryzae) | disease control rating PVA (Plasmopara viticola) | disease control rating BCB (Botrytis cinerea)
1 | CC(C)(C)C1CCC2(CC1)CC(O)(CNC1CCCCC1)CO2 (single isomer, unassigned) [Compound 213, 8-t-Butyl-3-cyclohexylaminomethyl-3-hydroxy-1-oxaspiro-(4,5)decane] | 0 (less than 50% disease control) | 2 (greater than 80% disease control) | 0 (less than 50% disease control) | 0 (less than 50% disease control) | 2 (greater than 80% disease control) | 2 (greater than 80% disease control) | 0 (less than 50% disease control) | 2 (greater than 80% disease control) | 1 (about 50-80% disease control) | 0 (less than 50% disease control) | 2 (greater than 80% disease control)
2 | CC(C)(C)C1CCC2(CC1)CC(NCc1ccc(Cl)cc1)CO2 (stereo not shown) [Compound 1] | 0 (less than 50% disease control) | 0 (less than 50% disease control) | 1 (about 50-80% disease control) | 0 (less than 50% disease control) | 0 (less than 50% disease control) | 2 (greater than 80% disease control) | 0 (less than 50% disease control) |  | 0 (less than 50% disease control) | 0 (less than 50% disease control) | 0 (less than 50% disease control)
3 | CCCCCCNC1COC2(CCC(C(C)(C)C)CC2)C1 (stereo not shown) [Compound 2] | 0 (less than 50% disease control) | 0 (less than 50% disease control) | 1 (about 50-80% disease control) | 0 (less than 50% disease control) | 0 (less than 50% disease control) | 2 (greater than 80% disease control) | 1 (about 50-80% disease control) |  | 0 (less than 50% disease control) | 0 (less than 50% disease control) | 0 (less than 50% disease control)
4 | CC1CN(C2COC3(CCC(C(C)(C)C)CC3)C2)CC(C)O1 (stereo not shown) [Compound 3] | 0 (less than 50% disease control) | 0 (less than 50% disease control) | 2 (greater than 80% disease control) | 2 (greater than 80% disease control) | 0 (less than 50% disease control) | 1 (about 50-80% disease control) | 0 (less than 50% disease control) |  | 0 (less than 50% disease control) | 0 (less than 50% disease control) | 0 (less than 50% disease control)
5 | CC1CCN(C2COC3(CCC(C(C)(C)CC(C)(C)C)CC3)C2)CC1 (stereo not shown) [Compound 135] | 1 (about 50-80% disease control) |  | 2 (greater than 80% disease control) | 1 (about 50-80% disease control) | 0 (less than 50% disease control) | 2 (greater than 80% disease control) | 2 (greater than 80% disease control) | 2 (greater than 80% disease control) | 0 (less than 50% disease control) | 0 (less than 50% disease control) | 0 (less than 50% disease control)
6 | CC1CC(C)CN(C2COC3(CCC(C(C)(C)CC(C)(C)C)CC3)C2)C1 (stereo not shown) [Compound 136] | 0 (less than 50% disease control) |  | 2 (greater than 80% disease control) | 0 (less than 50% disease control) | 0 (less than 50% disease control) | 2 (greater than 80% disease control) | 2 (greater than 80% disease control) | 2 (greater than 80% disease control) | 0 (less than 50% disease control) | 0 (less than 50% disease control) | 0 (less than 50% disease control)
